ChEMBL document CHEMBL4804286, “3-amino-4-(4-(4 (dimethylcarbamoyl) phenyl)-1,4-diazepan-1-yl) thieno [2,3-b] pyridine-2-carboxamide for use in cancer therapy and formulations comprising the same” (2020)
Values joined by “and” are separate entries in the source; they are usually repeats but may differ in a detail not shown here. Equal entries are not always repeated.

Tests used:
Parameters in all cases: scale not given: the % may be the effect or the level left
[1] = test system: Tyrosine-protein kinase ABL1 (Homo sapiens), P00519 [F317L]; test: Inhibition of non-phosphorylated human ABL1 F317L mutant assessed as percent of control at 2000 nM by KINOMEscan assay relative to control
[2] = test system: Tyrosine-protein kinase ABL1 (Homo sapiens), P00519 [M351T]; test: Inhibition of phosphorylated human ABL1 M351T mutant assessed as percent of control at 2000 nM by KINOMEscan assay relative to control
[3] = test system: Tyrosine-protein kinase ABL1 (Homo sapiens), P00519 [T315I]; test: Inhibition of non-phosphorylated human ABL1 T315I mutant assessed as percent of control at 2000 nM by KINOMEscan assay relative to control
[4] = test system: Serine/threonine-protein kinase B-raf (Homo sapiens), P15056 [V600E]; test: Inhibition of human BRAF V600E mutant assessed as percent of control at 2000 nM by KINOMEscan assay relative to control
[5] = target: Cyclin-dependent kinase 7 (Homo sapiens) (UniProt P50613); test: Inhibition of human CDK7 assessed as percent of control at 2000 nM by KINOMEscan assay relative to control
[6] = target: Cyclin-dependent kinase-like 1 (Homo sapiens) (UniProt Q00532); test: Inhibition of human CDKL1 assessed as percent of control at 2000 nM by KINOMEscan assay relative to control
[7] = target: Myotonin-protein kinase (Homo sapiens) (UniProt Q09013); test: Inhibition of human DMPK assessed as percent of control at 2000 nM by KINOMEscan assay relative to control
[8] = target: Serine/threonine-protein kinase MRCK gamma (Homo sapiens) (UniProt Q6DT37); test: Inhibition of human DMPK2 assessed as percent of control at 2000 nM by KINOMEscan assay relative to control
[9] = test system: Epidermal growth factor receptor (Homo sapiens), P00533 [G719C]; test: Inhibition of human EGFR G719C mutant assessed as percent of control at 2000 nM by KINOMEscan assay relative to control
[10] = target: Ephrin type-A receptor 4 (Homo sapiens) (UniProt P54764); test: Inhibition of human EPHA4 assessed as percent of control at 2000 nM by KINOMEscan assay relative to control
[11] = target: Vascular endothelial growth factor receptor 1 (Homo sapiens) (UniProt P17948); test: Inhibition of human FLT1 assessed as percent of control at 2000 nM by KINOMEscan assay relative to control
[12] = target: Tyrosine-protein kinase FRK (Homo sapiens) (UniProt P42685); test: Inhibition of human FRK assessed as percent of control at 2000 nM by KINOMEscan assay relative to control
[13] = target: Tyrosine-protein kinase HCK (Homo sapiens) (UniProt P08631); test: Inhibition of human HCK assessed as percent of control at 2000 nM by KINOMEscan assay relative to control
[14] = target: Serine/threonine-protein kinase ICK (Homo sapiens) (UniProt Q9UPZ9); test: Inhibition of human ICK assessed as percent of control at 2000 nM by KINOMEscan assay relative to control
[15] = target: Tyrosine-protein kinase JAK1 (Homo sapiens) (UniProt P23458); test: Inhibition of human JAK1 JH1 catalytic domain assessed as percent of control at 2000 nM by KINOMEscan assay relative to control
[16] = target: LIM domain kinase 1 (Homo sapiens) (UniProt P53667); test: Inhibition of human LIMK1 assessed as percent of control at 2000 nM by KINOMEscan assay relative to control
[17] = test system: Leucine-rich repeat serine/threonine-protein kinase 2 (Homo sapiens), Q5S007 [G2019S]; test: Inhibition of human LRRK2 G2019S mutant assessed as percent of control at 2000 nM by KINOMEscan assay relative to control
[18] = target: Dual specificity mitogen-activated protein kinase kinase 6 (Homo sapiens) (UniProt P52564); test: Inhibition of human MEK6 assessed as percent of control at 2000 nM by KINOMEscan assay relative to control
[19] = target: Serine/threonine-protein kinase 3 (Homo sapiens) (UniProt Q13188); test: Inhibition of human MST2 assessed as percent of control at 2000 nM by KINOMEscan assay relative to control
[20] = target: Myosin light chain kinase family member 4 (Homo sapiens) (UniProt Q86YV6); test: Inhibition of human MYLK4 assessed as percent of control at 2000 nM by KINOMEscan assay relative to control
[21] = target: Myosin-IIIb (Homo sapiens) (UniProt Q8WXR4); test: Inhibition of human MYO3B assessed as percent of control at 2000 nM by KINOMEscan assay relative to control
[22] = target: Protein odd-skipped-related 1 (Homo sapiens) (UniProt Q8TAX0); test: Inhibition of human OSR1 assessed as percent of control at 2000 nM by KINOMEscan assay relative to control
[23] = target: cAMP-dependent protein kinase catalytic subunit beta (Homo sapiens) (UniProt P22694); test: Inhibition of human PKAC-beta assessed as percent of control at 2000 nM by KINOMEscan assay relative to control
[24] = target: Receptor-interacting serine/threonine-protein kinase 2 (Homo sapiens) (UniProt O43353); test: Inhibition of human RIPK2 assessed as percent of control at 2000 nM by KINOMEscan assay relative to control
[25] = target: Receptor-interacting serine/threonine-protein kinase 4 (Homo sapiens) (UniProt P57078); test: Inhibition of human RIPK4 assessed as percent of control at 2000 nM by KINOMEscan assay relative to control
[26] = target: Rho-associated protein kinase 2 (Homo sapiens) (UniProt O75116); test: Inhibition of human ROCK2 assessed as percent of control at 2000 nM by KINOMEscan assay relative to control
[27] = target: Ribosomal protein S6 kinase alpha-6 (Homo sapiens) (UniProt Q9UK32); test: Inhibition of human C-terminal RSK4 kinase domain 2 assessed as percent of control at 2000 nM by KINOMEscan assay relative to control
[28] = target: Serine/threonine-protein kinase SBK1 (Homo sapiens) (UniProt Q52WX2); test: Inhibition of human SBK1 assessed as percent of control at 2000 nM by KINOMEscan assay relative to control
[29] = target: Serine/threonine-protein kinase 33 (Homo sapiens) (UniProt Q9BYT3); test: Inhibition of human STK33 assessed as percent of control at 2000 nM by KINOMEscan assay relative to control
[30] = target: Testis-specific serine/threonine-protein kinase 3 (Homo sapiens) (UniProt Q96PN8); test: Inhibition of human TSSK3 assessed as percent of control at 2000 nM by KINOMEscan assay relative to control
[31] = target: Tyrosine-protein kinase ZAP-70 (Homo sapiens) (UniProt P43403); test: Inhibition of human ZAP70 assessed as percent of control at 2000 nM by KINOMEscan assay relative to control

Sequence of Ephrin type-A receptor 4 (Homo sapiens) (P54764 whole entry): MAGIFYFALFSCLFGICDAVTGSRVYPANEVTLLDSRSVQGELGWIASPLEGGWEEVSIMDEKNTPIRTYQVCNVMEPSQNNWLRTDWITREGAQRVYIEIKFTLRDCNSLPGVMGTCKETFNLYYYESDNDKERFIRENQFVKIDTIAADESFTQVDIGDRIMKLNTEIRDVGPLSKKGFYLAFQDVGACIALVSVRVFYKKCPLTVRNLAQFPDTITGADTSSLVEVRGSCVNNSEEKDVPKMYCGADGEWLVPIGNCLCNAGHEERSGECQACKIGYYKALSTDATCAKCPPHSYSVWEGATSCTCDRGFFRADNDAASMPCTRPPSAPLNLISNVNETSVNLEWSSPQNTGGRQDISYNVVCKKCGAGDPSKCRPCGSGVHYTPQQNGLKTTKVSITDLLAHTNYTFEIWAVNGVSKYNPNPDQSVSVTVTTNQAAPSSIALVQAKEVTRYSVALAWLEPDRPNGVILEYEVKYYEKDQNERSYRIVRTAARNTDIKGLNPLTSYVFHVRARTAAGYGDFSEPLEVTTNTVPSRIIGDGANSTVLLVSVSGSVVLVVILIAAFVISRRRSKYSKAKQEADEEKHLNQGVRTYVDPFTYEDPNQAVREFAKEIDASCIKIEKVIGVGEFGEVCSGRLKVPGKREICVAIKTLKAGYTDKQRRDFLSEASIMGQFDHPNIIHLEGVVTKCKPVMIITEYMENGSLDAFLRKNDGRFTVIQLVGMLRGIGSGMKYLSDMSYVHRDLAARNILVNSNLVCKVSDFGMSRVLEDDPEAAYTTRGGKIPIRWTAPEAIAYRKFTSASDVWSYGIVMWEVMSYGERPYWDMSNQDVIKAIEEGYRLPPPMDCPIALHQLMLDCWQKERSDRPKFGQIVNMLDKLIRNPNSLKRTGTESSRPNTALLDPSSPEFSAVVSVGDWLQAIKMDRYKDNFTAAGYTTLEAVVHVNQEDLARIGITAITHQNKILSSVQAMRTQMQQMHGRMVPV
Sequence of LIM domain kinase 1 (Homo sapiens) (P53667 whole entry, looked up, the tested form may be a part): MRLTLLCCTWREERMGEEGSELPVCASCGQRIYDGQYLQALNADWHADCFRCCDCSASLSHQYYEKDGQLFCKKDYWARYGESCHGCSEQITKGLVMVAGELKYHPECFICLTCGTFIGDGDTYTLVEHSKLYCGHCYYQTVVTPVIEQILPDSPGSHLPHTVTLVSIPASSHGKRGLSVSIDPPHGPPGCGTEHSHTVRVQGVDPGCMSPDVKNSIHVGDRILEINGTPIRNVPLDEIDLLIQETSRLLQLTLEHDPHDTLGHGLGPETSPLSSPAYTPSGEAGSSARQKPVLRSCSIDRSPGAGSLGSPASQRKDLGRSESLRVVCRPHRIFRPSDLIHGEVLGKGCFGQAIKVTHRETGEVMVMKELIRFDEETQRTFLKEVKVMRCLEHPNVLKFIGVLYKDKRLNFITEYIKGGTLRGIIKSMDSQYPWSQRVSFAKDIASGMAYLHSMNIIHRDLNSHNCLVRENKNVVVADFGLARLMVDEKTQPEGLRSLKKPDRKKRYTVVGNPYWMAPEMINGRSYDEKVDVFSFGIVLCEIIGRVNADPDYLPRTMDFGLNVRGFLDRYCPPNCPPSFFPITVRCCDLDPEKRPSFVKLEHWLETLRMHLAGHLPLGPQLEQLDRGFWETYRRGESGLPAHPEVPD
Sequence of Tyrosine-protein kinase HCK (Homo sapiens) (P08631 2-526 limits assumed): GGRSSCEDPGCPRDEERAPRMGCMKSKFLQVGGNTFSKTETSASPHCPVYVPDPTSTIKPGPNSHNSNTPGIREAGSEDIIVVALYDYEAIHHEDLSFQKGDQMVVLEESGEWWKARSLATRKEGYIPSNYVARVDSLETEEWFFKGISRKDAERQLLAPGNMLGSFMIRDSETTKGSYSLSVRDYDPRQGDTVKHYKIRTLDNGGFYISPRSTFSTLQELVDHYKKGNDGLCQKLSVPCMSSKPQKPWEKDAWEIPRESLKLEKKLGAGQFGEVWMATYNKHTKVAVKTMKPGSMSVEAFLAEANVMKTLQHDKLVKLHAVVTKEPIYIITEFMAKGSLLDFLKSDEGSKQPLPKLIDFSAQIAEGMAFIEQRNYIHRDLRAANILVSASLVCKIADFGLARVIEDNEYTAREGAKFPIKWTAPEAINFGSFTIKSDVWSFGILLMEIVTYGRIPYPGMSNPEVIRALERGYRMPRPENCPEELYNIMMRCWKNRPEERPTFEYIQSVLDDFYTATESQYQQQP
Sequence of Rho-associated protein kinase 2 (Homo sapiens) (O75116 whole entry, looked up, the tested form may be a part): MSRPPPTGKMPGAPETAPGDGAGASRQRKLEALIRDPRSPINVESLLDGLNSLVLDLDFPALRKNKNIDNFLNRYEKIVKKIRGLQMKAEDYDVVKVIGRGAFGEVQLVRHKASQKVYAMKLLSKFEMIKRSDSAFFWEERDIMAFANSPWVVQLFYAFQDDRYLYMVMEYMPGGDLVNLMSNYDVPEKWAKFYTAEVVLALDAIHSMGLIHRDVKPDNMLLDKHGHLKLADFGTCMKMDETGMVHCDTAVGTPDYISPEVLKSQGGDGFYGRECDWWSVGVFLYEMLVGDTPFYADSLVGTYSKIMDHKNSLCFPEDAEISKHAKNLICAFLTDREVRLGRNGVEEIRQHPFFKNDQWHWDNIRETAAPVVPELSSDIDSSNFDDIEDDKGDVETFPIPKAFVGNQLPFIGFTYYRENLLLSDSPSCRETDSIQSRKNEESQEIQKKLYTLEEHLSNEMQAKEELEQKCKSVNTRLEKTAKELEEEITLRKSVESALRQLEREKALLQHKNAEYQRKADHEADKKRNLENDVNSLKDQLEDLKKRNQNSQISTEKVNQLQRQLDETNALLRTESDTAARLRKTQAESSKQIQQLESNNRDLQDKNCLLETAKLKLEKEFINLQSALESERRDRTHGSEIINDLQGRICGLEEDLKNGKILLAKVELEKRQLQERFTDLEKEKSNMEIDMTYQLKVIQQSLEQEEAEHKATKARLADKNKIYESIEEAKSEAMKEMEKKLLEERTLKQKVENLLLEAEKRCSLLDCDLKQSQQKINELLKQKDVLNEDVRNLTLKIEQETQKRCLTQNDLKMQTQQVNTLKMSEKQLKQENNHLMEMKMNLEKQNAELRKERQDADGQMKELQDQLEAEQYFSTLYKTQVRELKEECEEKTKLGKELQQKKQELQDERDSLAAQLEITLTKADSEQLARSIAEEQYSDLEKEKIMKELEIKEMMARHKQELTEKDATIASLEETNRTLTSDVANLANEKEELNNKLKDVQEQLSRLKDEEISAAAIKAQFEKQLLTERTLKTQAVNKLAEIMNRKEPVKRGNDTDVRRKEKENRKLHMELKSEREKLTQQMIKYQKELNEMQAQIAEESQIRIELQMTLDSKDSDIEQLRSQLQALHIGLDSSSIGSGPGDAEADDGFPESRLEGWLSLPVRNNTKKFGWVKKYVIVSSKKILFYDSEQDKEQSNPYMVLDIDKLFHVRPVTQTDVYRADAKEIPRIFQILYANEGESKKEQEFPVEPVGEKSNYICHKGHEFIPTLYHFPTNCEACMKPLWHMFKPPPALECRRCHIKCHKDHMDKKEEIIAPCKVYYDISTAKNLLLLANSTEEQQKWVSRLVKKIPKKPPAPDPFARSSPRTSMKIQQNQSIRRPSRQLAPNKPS
Sequence of Dual specificity mitogen-activated protein kinase kinase 6 (Homo sapiens) (P52564 whole entry): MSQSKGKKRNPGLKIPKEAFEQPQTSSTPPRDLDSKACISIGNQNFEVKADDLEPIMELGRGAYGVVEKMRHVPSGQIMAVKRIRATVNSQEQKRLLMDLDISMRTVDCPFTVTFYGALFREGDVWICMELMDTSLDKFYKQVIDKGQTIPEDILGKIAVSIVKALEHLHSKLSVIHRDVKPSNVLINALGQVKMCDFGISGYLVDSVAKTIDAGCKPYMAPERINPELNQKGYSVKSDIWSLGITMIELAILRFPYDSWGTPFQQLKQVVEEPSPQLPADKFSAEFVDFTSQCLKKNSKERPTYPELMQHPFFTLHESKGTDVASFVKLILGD
Sequence of Serine/threonine-protein kinase 33 (Homo sapiens) (Q9BYT3 whole entry, looked up): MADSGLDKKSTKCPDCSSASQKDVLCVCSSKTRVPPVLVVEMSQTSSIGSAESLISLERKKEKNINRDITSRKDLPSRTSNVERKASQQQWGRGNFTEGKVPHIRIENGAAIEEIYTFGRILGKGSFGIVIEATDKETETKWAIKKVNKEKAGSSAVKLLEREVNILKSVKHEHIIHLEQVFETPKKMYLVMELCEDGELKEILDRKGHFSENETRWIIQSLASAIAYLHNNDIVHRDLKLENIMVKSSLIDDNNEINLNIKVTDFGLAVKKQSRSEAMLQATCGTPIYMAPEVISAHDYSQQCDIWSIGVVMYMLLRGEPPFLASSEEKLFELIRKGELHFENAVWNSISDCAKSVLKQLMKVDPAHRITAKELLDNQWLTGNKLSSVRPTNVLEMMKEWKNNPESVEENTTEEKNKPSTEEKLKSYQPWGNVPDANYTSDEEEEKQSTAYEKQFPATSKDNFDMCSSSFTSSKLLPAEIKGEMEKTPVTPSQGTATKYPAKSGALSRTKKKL
Sequence of Tyrosine-protein kinase FRK (Homo sapiens) (P42685 whole entry): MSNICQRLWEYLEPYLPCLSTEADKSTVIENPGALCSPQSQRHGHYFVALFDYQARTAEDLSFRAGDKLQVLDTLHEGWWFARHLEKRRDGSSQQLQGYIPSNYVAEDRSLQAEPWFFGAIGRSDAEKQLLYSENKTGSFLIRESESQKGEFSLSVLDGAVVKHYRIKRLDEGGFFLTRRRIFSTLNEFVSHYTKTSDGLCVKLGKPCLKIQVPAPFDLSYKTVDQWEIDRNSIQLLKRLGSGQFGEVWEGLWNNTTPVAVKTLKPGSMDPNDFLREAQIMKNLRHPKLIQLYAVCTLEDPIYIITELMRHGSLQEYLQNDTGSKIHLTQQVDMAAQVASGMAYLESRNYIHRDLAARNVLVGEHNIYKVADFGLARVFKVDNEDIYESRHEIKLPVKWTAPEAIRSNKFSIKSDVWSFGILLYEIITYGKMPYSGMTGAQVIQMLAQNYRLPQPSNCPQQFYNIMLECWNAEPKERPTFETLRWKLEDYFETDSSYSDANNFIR

CN(C)C(=O)c1ccc(N2CCCN(c3ccnc4sc(C(N)=O)c(N)c34)CC2)cc1
Activity [1]: 99% and 100% | Activity [2]: 77% | Activity ([2]; INHIBITOR): 10% | Activity [3]: 90% and 78% | Activity [4]: 100% and 84% | Activity [5]: 100% and 78% | Activity [6]: 100% and 92% | Activity [7]: 97% | Activity [8]: 93% and 94% | Activity [9]: 97% and 100% | Activity [10]: 100% | Activity [11]: 100% | Activity [12]: 100% and 97% | Activity [13]: 96% | Activity [14]: 84% and 66% | Activity [15]: 57% and 82% | Activity [16]: 100% | Activity [17]: 90% and 76% | Activity [18]: 100% and 96% | Activity [19]: 100% and 84% | Activity [20]: 100% and 94% | Activity [21]: 87% and 100% | Activity [22]: 100% and 88% | Activity [23]: 83% and 100% | Activity [24]: 100% and 93% | Activity [25]: 89% and 68% | Activity [26]: 100% and 80% | Activity [27]: 94% and 79% | Activity [28]: 100% and 83% | Activity [29]: 100% | Activity [30]: 93% and 100% | Activity [31]: 95% and 87%
